# Test results reported in patent US6951751B2, “DNA and amino acid sequences of a tyrosine-inducible tyrosine ammonia lyase enzyme from the yeast Trichosporon cutaneum” (E. I. du Pont de Nemours and Company, priority 2002, dated 2005).
# Read-outs that look alike come from different tables or passages of the source.
# Assays:
# Format in all cases: biochemical
# [1] = biological target: T1, Rhodotorula rubra (ATCC No. 889) PAL/TAL enzyme (Rhodotorula mucilaginosa, UniProt P10248); test: PAL/TAL enzyme kinetics in cell-free extract, R. rubra ATCC 889; conditions: Vmax/Km for phenylalanine relative to tyrosine
# T1 sequence (P10248 1-713): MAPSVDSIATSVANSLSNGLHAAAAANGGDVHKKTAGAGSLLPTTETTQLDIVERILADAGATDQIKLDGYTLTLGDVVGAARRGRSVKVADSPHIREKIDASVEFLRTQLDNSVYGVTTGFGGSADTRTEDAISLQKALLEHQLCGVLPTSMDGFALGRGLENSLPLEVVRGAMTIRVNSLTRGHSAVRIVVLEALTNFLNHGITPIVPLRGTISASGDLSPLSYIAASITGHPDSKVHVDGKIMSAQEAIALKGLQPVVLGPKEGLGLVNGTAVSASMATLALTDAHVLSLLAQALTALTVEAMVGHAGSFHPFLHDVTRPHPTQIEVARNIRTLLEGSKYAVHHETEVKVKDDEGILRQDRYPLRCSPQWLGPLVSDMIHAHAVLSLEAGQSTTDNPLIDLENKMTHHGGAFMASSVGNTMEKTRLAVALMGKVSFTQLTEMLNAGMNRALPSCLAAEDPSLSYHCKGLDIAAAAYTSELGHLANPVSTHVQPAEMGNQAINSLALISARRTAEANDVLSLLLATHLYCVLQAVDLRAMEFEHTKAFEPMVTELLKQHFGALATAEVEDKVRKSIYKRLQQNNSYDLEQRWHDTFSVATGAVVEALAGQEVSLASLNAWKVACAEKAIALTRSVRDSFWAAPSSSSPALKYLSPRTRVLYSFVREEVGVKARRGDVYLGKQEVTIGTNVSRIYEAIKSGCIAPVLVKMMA
# Text: (§1) The yeast strains: Rhodotorula rubra (ATCC No. 889), Saccharomycopsis fibuligera (ATCC No. 2080), Rhodosporidium toruloides (ATCC No. 10788), Sporidobolus pararoseus (ATCC No. 11386), Sporidiobolus ruinenii (ATCC No. 20489), Rhodotorula graminis (ATCC No. 20804), Rhodotorula minuta (ATCC No. 32769), Trichosporon cutaneum (ATCC No. 46446), and Trichosporon cutaneum (ATCC No. 58094) were obtained from the American Type Culture Collection (ATCC, Manassas, Va.). These yeast strains were streaked out from glycerol stock onto nutrient agar plates and grown at 30° C. Single colonies were then selected and transferred to 50 mL of Dagley's medium (Sparnins, et al, J. Bact. 138:425-430 (1979)) supplemented with 0.1 g/L of tyrosine, phenylalanine or succinate. Alternatively, a minimal media, consisting of 1.61 g/L of K2HPO4, 5.55 g/L of KH2PO4, 0.1 g/L MgSO4, 0.01 g/L of biotin, with a pH of 6.2 and supplemented with 0.5 g/L of tyrosine, was used. […]
# (§2) Protein concentrations were determined using the Bradford method (Anal. Biochem. 72:248-254 (1976)). The Coomassie solution was mixed with varying amounts of the cell free extracts and the OD at 595 nm was measured.
# (§3) For PAL activity, cinnamate formation was monitored at 290 nm using a molar extinction coefficient of 9000 cm-1. […] For TAL activity, PHCA formation was monitored at 315 nm (extinction coefficient of 10,000 cm-1). […]
# [2] = tested on: Saccharomycopsis fibuligera (ATCC No. 2080) PAL/TAL enzyme; test: PAL/TAL enzyme kinetics in cell-free extract, S. fibuligera ATCC 2080
# Text: (§4) The yeast strains: Rhodotorula rubra (ATCC No. 889), Saccharomycopsis fibuligera (ATCC No. 2080), Rhodosporidium toruloides (ATCC No. 10788), Sporidobolus pararoseus (ATCC No. 11386), Sporidiobolus ruinenii (ATCC No. 20489), Rhodotorula graminis (ATCC No. 20804), Rhodotorula minuta (ATCC No. 32769), Trichosporon cutaneum (ATCC No. 46446), and Trichosporon cutaneum (ATCC No. 58094) were obtained from the American Type Culture Collection (ATCC, Manassas, Va.). These yeast strains were streaked out from glycerol stock onto nutrient agar plates and grown at 30° C. Single colonies were then selected and transferred to 50 mL of Dagley's medium (Sparnins, et al, J. Bact. 138:425-430 (1979)) supplemented with 0.1 g/L of tyrosine, phenylalanine or succinate. Alternatively, a minimal media, consisting of 1.61 g/L of K2HPO4, 5.55 g/L of KH2PO4, 0.1 g/L MgSO4, 0.01 g/L of biotin, with a pH of 6.2 and supplemented with 0.5 g/L of tyrosine, was used. The cells were grown up at 30° C. on a shaker at ˜250 rpm to an OD between 1.0 and 2.0 at 600 nm. The cells were then pelleted by centrifugation and resuspended in 1.0 mL of 50 mM Tris-HCl buffer, pH 8.5.
# (§5) The cells were washed and then resuspended in 50 mM Tris-HCl buffer, pH 8.5, containing 1.0 μg/mL of both leupeptin and pepstatin A, 0.5 mM of PMSF (phenylmethylsulfonyl fluoride) and a small amount of DNase. The cells were then passed twice through a French Pressure Cell at 18,000 psi and the debris was removed by centrifugation at 38,720×g for 20 min at 4° C. The supernatant was then used as the crude cell free extract for enzyme assays.
# as §2
# (§6) For PAL activity, cinnamate formation was monitored at 290 nm using a molar extinction coefficient of 9000 cm-1. One unit of activity deaminates 1.0 μmol of phenylalanine to cinnamate in one min. For TAL activity, PHCA formation was monitored at 315 nm (extinction coefficient of 10,000 cm-1). One unit of activity deaminates 1.0 μmol of tyrosine to PHCA in one min.
# [3] = biological target: T2, R. glutinis (Rhodosporidium toruloides, ATCC No. 10788) PAL/TAL enzyme (Rhodotorula toruloides, UniProt P11544); test: PAL/TAL enzyme kinetics in cell-free extract, R. glutinis (R. toruloides) ATCC 10788; conditions: Vmax/Km for phenylalanine relative to tyrosine
# T2 sequence (P11544 1-716): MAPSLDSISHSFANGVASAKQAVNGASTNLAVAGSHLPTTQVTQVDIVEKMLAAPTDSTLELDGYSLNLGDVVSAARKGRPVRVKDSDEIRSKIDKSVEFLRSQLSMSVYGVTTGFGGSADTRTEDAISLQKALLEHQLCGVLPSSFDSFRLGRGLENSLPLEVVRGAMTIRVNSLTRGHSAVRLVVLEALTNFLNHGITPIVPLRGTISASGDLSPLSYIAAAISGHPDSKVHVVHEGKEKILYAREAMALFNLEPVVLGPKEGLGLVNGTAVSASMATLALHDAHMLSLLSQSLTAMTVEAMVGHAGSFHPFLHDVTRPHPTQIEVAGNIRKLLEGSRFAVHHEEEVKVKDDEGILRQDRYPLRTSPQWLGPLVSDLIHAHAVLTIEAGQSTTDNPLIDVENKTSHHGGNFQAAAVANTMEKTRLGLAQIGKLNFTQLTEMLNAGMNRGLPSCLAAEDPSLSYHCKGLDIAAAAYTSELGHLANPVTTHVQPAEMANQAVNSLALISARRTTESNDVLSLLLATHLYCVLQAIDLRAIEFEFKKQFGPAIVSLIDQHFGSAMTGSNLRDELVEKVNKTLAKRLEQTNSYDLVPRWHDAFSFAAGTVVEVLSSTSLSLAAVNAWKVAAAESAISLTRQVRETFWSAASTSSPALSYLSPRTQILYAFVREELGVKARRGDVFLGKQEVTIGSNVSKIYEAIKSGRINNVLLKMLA
# Text: as §1, §2, §3
# [4] = tested on: Sporidobolus pararoseus (ATCC No. 11386) PAL/TAL enzyme; test: PAL/TAL enzyme kinetics in cell-free extract, S. pararoseus ATCC 11386
# Text: as §4, §5, §2, §6
# [5] = tested on: Sporidiobolus ruinenii (ATCC No. 20489) PAL/TAL enzyme; test: PAL/TAL enzyme kinetics in cell-free extract, S. ruinenii ATCC 20489
# Text: as §4, §5, §2, §6
# [6] = tested on: Rhodotorula graminis (ATCC No. 20804) PAL/TAL enzyme; test: PAL/TAL enzyme kinetics in cell-free extract, R. graminis ATCC 20804
# Text: as §4, §5, §2, §6
# [7] = tested on: Rhodotorula minuta (ATCC No. 32769) PAL/TAL enzyme; test: PAL/TAL enzyme kinetics in cell-free extract, R. minuta ATCC 32769
# Text: as §4, §5, §2, §6
# [8] = tested on: Trichosporon cutaneum (ATCC No. 46446) PAL/TAL enzyme; test: PAL/TAL enzyme kinetics in cell-free extract, T. cutaneum ATCC 46446
# Text: as §4, §5, §2, §6
# [9] = tested on: Trichosporon cutaneum (ATCC No. 58094) tyrosine ammonia lyase (TAL), wild type, SEQ ID NO:25; test: PAL/TAL enzyme kinetics in cell-free extract, T. cutaneum ATCC 58094
# Text: as §4, §5, §2, §6
# [10] = Vmax/Km for phenylalanine relative to tyrosine
# [11] = apparent, phenylalanine as substrate, cell-free extract, pH 8.5
# [12] = apparent, phenylalanine as substrate, cell-free extract, pH 8.5, read-out: Km (PAL)
# [13] = apparent, tyrosine as substrate, cell-free extract, pH 8.5
# [14] = apparent, tyrosine as substrate, cell-free extract, pH 8.5, read-out: Km (TAL)
compound,measurement,setting,value
N[C@@H](Cc1ccccc1)C(=O)O [L-phenylalanine],Ratio PAL/TAL,[1],2.52
same,Ratio PAL/TAL,[2]; [10],1.74
same,Vmax (PAL),[2]; [11],0.011 U/mg
same,Km,[2]; [12],467 µM
same,Ratio PAL/TAL,[3],2.20
same,Ratio PAL/TAL,[4]; [10],3.55
same,Vmax (PAL),[4]; [11],0.179 U/mg
same,Km,[4]; [12],507 µM
same,Ratio PAL/TAL,[5]; [10],4.09
same,Vmax (PAL),[5]; [11],0.024 U/mg
same,Km,[5]; [12],389 µM
same,Ratio PAL/TAL,[6]; [10],1.87
same,Vmax (PAL),[6]; [11],0.239 U/mg
same,Km,[6]; [12],448 µM
same,Ratio PAL/TAL,[7]; [10],2.79
same,Vmax (PAL),[7]; [11],0.083 U/mg
same,Km,[7]; [12],584 µM
same,Ratio PAL/TAL,[8]; [10],2.64
same,Vmax (PAL),[8]; [11],0.128 U/mg
same,Km,[8]; [12],49600 µM
same,Ratio PAL/TAL,[9]; [10],0.80
same,Vmax (PAL),[9]; [11],0.777 U/mg
same,Km,[9]; [12],2330 µM
N[C@@H](Cc1ccc(O)cc1)C(=O)O [L-tyrosine],Vmax (TAL),[2]; [13],0.002 U/mg
same,Km,[2]; [14],156 µM
same,Vmax (TAL),[4]; [13],0.033 U/mg
same,Km,[4]; [14],327 µM
same,Vmax (TAL),[5]; [13],0.004 U/mg
same,Km,[5]; [14],264 µM
same,Vmax (TAL),[6]; [13],0.044 U/mg
same,Km,[6]; [14],154 µM
same,Vmax (TAL),[7]; [13],0.011 U/mg
same,Km,[7]; [14],212 µM
same,Vmax (TAL),[8]; [13],0.013 U/mg
same,Km,[8]; [14],13100 µM
same,Km,[9]; [14],431 µM
